Patent publication US10501479B2, “Benzenesulfonyl-asymmetric ureas and medical uses thereof” (HELSINN HEALTHCARE SA, priority 2016, dated 2019)
Where two headings read alike, the source gives them in different places.

Assays:
[1] = target: T1, recombinant human ghrelin receptor (HEK293/GRLN) (Homo sapiens, UniProt Q92847); experiment: Ghrelin inverse agonist potency (EC50) with IP-1 (IP-One HTRF) assay; format: cell-based; settings: IP-1 assay
T1 construct: expressed in transfected cells
Outline: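 IP-1 accumulation was measured by HTRF (IP1-d2/Tb-cryptate, 620/665 nm read after 1 hour at room temperature) following 1 hour of compound treatment at 37° C. Cells were HEK293 stably expressing human ghrelin receptor, plated a day earlier on Matrigel. Inverse agonist potency was reported as EC50.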

[2] = target: T2, GHSR-1a (HEK293/GHSR1a cell line) (Homo sapiens, UniProt Q92847); experiment: Ghrelin antagonist potency (IC50) with calcium FLIPR assay, ghrelin 10 nM; format: cell-based; settings: ghrelin antagonist potency
T2 construct: expressed in transfected cells; host or cells: HEK293/GHSR1a cell line
Outline: (§1)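 In this assay, compound alone assesses agonism, while compound co-added with ghrelin at 10 nM assesses antagonism. In both modes the calcium-dye signal is tracked for 2 min from t=20 sec.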

[3] = Metabolic stability in human liver microsomes; format: in vitro ADME
Outline: (§2)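 Loss of parent over time in microsomal incubations at 37 °C with NADPH regeneration, sampled up to 90 min and read by LC-MS/MS.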

[4] = Metabolic stability in mouse liver microsomes; format: in vitro ADME
Outline: as §2

[5] = Animal PK study in mouse via i.v., p.o. and s.c. administration; format: in vivo
Method: All treated animals received a single dose of a test compound (either through i.v., p.o., or s.c. administration) according to the regimen shown in the following table:
For oral dose groups, appropriate amount of test compound was prepared in the following formulation carrier: 1% DMSO (increase to 5% maximum if necessary) and 0.5% Methycellulose. Each mouse or rat received by oral gavage 10 mL/kg of the formulation mixture.
For i.v. and s.c dose groups, appropriate amount of test compound was dissolved in 1% DMSO (increase to 5% maximum if necessary), 99% of 20% HP-β-Cyclodextron (w/v). The pH was adjusted accordingly. Each mouse or rat received 5 mL/kg of the formulation mixture. i.v. dose was administered by tail vein injection. Subcutaneous injection was administered over the shoulders, into the loose skin over the neck. At designated time points (e.g., i.v. and s.c.: 0.083, 0.25, 0.5, 1, 2, 4, 8 and 24 hrs; p.o.: 0.25, 0.5, 1, 2, 4, 8 and 24 hrs), systemic samples of blood (50 μL in mouse or 500 μL in rat) were collected by puncture (submandibular vein in mouse or jugular vein in rat) into vacutainers containing EDTA-K2 as anti-coagulant. The blood was centrifuged at 6000 rpm for 8 min at 4° C. to obtain plasma. All plasma samples were stored at −20° C. All plasma samples were added to acetonitrile for protein precipitation and quantitatively analyzed by LC-MS/MS.

[6] = Animal PK study in rat via i.v., p.o. and s.c. administration; format: in vivo; settings: for half-life: plasma, ip, read-out: PK T1/2 i.p.; for half-life / PK CL i.p. / PK Vd i.p.: rat (R), i.p.
[7] = target: T2, GHSR-1a (HEK293/GHSR1a cell line); experiment: Ghrelin agonist potency (EC50) with calcium FLIPR assay; format: cell-based; settings: ghrelin agonist potency, read-out: Activity EC50/EMax
Outline: as §1

[8] = Metabolic stability in rat liver microsomes; format: in vitro ADME
Method: Metabolic Stability Study
The metabolic stability of compounds in human, dog, rat and mouse liver microsomes was performed according the experimental conditions reported below:
• a) Prepare the following 5 stock solutions: • 1. Test compound stock solutions: dilute 10 mM solution of dextromethorphan (Dtr) in DMSO, 10 mM solution of diphenhydramine (DPA) in DMSO, 10 mM solution of omeprazole (Ome) in DMSO, 10 mM solution of verapamil (Ver) in DMSO, and 10 mM of an inverse agonist compound in DMSO to 0.25 mM solution each with acetonitrile/water (70/30). • 2. Buffer: 100 mM potassium phosphate Buffer (PBS) at pH 7.4 • 3. Liver microsomes (20 mg/ml): Thaw in 37° C. water bath quickly • 4. 2000 μL: of NADPH regenerating system (1.3 mM). Place this system on ice before use:
• 5. […] The test compound concentration in the wells, measured by LC-MS/MS, represents the concentration at time=0. • f) To determine the test compound concentration when t≠0, pre-incubate the NADPH regenerating system and the incubation plate containing the remaining 320 μL of incubation mixture (microsomes protein and test compound) for 5 minutes at 37° C. • g) Start the incubation reaction by adding 80 μL NADPH regenerating system to each well containing the remaining 320 μL incubation mixture. • h) After 10 min., 30 min., and 90 min. of incubation at 37° C., transfer 100 μL of the incubation mixture (microsomes protein, test compound, and NADPH) into the wells of a stop plate pre-filled with 300 μL of the cold quench solution. Shake well. • i) Centrifuge the stop plate at 5000×g for 10 minutes. Collect and dilute the supernatant 3 times with distilled water. Sample and analyze the test compound concentration for all the wells by LC-MS/MS. Animal PK Studies via i.v. (intravenous), p.o. (orally) and s.c. (subcutaneous) administrations

[9] = ghrelin inverse agonist potency, read-out: Activity EC50

T1 sequence (Q92847 whole entry): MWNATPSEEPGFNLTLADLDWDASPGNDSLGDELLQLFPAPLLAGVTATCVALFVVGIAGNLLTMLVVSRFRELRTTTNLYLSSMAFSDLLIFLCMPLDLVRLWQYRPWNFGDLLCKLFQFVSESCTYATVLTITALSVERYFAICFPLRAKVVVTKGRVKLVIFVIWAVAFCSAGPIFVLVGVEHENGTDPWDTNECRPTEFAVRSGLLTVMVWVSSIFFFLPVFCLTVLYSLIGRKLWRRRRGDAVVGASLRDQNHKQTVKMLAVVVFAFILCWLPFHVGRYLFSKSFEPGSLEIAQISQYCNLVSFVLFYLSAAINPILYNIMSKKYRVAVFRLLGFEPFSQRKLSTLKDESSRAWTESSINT
T2 sequence (Q92847 whole entry): as above

Structure (SMILES)	Metabolic Stability Study H = human [3]	EC50 [1, 9]	EC50 [7]	IC50 ([2]; read-out: Activity IC50)	Metabolic Stability Study R = rat [8]	also measured
C[C@H](NC(=O)Nc1ccc(S(=O)(=O)Cc2ccc3c(c2)CCNC3)cc1)c1cccc(Cl)c1Cl [H1027, (S)-1-(1-(2,3-dichlorophenyl)ethyl)-3-(4-(((1,2,3,4-tetrahydroisoquinolin-6-yl)methyl)sulfonyl)phenyl)urea]	H = <10 M = <10 R = not reported D = not reported μL/min/mg	–	–	–	–	EC50 ([1]; inverse agonist potency, read-out: EC50 (Activity)): 1.62 nM; IC50 ([2]; read-out: IC50 (Activity)): 2.5 nM; Metabolic Stability Study M = mouse [4]: H = <10 M = <10 R = not reported D = not reported μL/min/mg; PK F [5]: F = 0.72 (M); %; PK CLiv ([5]; i.v.): 11.8 mL/min/kg; PK Vdiv ([5]; i.v.): 1.64 L/kg; PK t1/2iv ([5]; i.v.): 1.61 (M); h; PK CLpo ([5]; p.o.): 1428 mL/min/kg; PK Vdpo ([5]; p.o.): 345 (M); L/Kg; PK t1/2po ([5]; p.o.): 2.79 (M); h; PK F ([6]; rat): 57.14 (R) %; PK CLiv ([6]; rat, i.v.): 205.7 mL/min/kg; PK Vdiv ([6]; rat, i.v.): 168.2 L/kg; PK t1/2iv ([6]; rat, i.v.): 10.2 (R) h; PK CLpo ([6]; rat, p.o.): 416.3 mL/min/kg; PK Vdpo ([6]; rat, p.o.): 80.4 (R) L/Kg; PK t1/2po ([6]; rat, p.o.): 2.21 (R) h
COc1cc(NC(=O)NC(C)c2ccccc2)ccc1S(=O)(=O)Cc1ccc2c(c1)CNC2 (stereo not shown) [H1461, 1-(4-((isoindolin-5-ylmethyl)sulfonyl)-3-methoxyphenyl)-3-(1-phenylethyl)urea]	22.0 µL/min/mg	3.5 nM	> 30000 nM	7.9 nM	–	Metabolic Stability Study M = mouse [4]: < 10 µL/min/mg; half-life [6]: 2.61 h; PK CL i.p. [6]: 38.3 mL/min/kg; PK Vd i.p. [6]: 8.64 L/kg
CC(c1ccccc1)N(O)C(=O)Nc1ccc(S(=O)(=O)Cc2ccc3c(c2)CNC3)cc1 (stereo not shown) [H1472, 1-hydroxy-3-(4-((isoindolin-5-ylmethyl)sulfonyl)phenyl)-1-(1-phenylethyl)urea]	–	3.25 nM	> 30000 nM	6 nM	–	half-life [6]: 2.43 h; PK CL i.p. [6]: 36.5 mL/min/kg; PK Vd i.p. [6]: 7.71 L/kg
CC(NC(=O)Nc1ccc(S(=O)(=O)Cc2ccc3c(c2)CCNC3)cc1C(=O)O)c1ccccc1 (stereo not shown) [H1541, 2-(3-(1-phenylethyl)ureido)-5-(((1,2,3,4-tetrahydroisoquinolin-6-yl)methyl)sulfonyl)benzoic acid]	H = <10 R = <10 μL/min/mg	9.7 nM	> 30000 nM	72.3 nM	H = <10 R = <10 μL/min/mg	–
CC(NC(=O)Nc1ccc(S(=O)(=O)Cc2ccc3c(c2)CCNC3)cc1C(=O)O)c1cccc(Cl)c1Cl (stereo not shown) [H1542, 2-(3-(1-(2,3-dichlorophenyl)ethyl)ureido)-5-(((1,2,3,4-tetrahydroisoquinolin-6-yl)methyl)sulfonyl)benzoic acid]	< 10 µL/min/mg	1.9 nM	> 30000 nM	1.69 nM	13.3 µL/min/mg	–
COc1cc(S(=O)(=O)Cc2ccc3c(c2)C(F)CNC3)ccc1NC(=O)N[C@H](C)c1cccc(Cl)c1Cl (stereo partly drawn) [H1543, 1-((R)-1-(2,3-dichlorophenyl)ethyl)-3-(4-(((4-fluoro-1,2,3,4-tetrahydroisoquinolin-6-yl)methyl)sulfonyl)-2-methoxyphenyl)urea]	46.8 µL/min/mg	12.6 nM	> 30000 nM	15.9 nM	204.6 µL/min/mg	–
COc1cc(S(=O)(=O)Cc2ccc3c(c2)C(F)CN(C)C3)ccc1NC(=O)N[C@H](C)c1cccc(Cl)c1Cl (stereo partly drawn) [H1544, 1-((R)-1-(2,3-dichlorophenyl)ethyl)-3-(4-(((4-fluoro-2-methyl-1,2,3,4-tetrahydroisoquinolin-6-yl)methyl)sulfonyl)-2-methoxyphenyl)urea]	323.3 µL/min/mg	9.7 nM	> 30000 nM	40.4 nM	427.2 µL/min/mg	–
